Results reported in article PMC9851200, “Multiparameter phenotypic screening for endogenous TFEB and TFE3 translocation identifies novel chemical series modulating lysosome function” (Autophagy, 2022).

What was measured:
Assay type in all cases: binding
[1] = biological target: kinases (KINOMEscan panel) (Homo sapiens, UniProt P78368); conditions: kinase CSNK1G2; NEW KINOMEscan
[2] = biological target: kinases (KINOMEscan panel) (Homo sapiens, UniProt P04049); conditions: RAF1; NEW KINOMEscan
[3] = biological target: kinases (KINOMEscan panel) (Homo sapiens, UniProt Q9UEW8); conditions: NEW KINOMEscan
[4] = biological target: kinases (KINOMEscan panel) (Homo sapiens, UniProt P51451); conditions: kinase BLK; NEW KINOMEscan
kinases (KINOMEscan panel) (Homo sapiens, UniProt P51451), sequence (P51451 whole entry): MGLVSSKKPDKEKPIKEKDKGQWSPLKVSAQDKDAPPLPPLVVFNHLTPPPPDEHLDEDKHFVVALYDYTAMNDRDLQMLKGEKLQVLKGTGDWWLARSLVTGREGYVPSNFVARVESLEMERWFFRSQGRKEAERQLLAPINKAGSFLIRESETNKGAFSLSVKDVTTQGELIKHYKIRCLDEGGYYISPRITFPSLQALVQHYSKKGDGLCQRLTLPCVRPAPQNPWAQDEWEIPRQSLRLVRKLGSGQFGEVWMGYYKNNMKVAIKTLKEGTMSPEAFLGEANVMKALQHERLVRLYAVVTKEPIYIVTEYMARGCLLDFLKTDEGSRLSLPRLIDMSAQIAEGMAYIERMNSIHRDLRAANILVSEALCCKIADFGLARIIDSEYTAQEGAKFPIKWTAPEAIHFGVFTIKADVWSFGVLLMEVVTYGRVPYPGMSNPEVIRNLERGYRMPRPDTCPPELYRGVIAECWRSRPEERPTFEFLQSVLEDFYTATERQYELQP

[5] = biological target: kinases (KINOMEscan panel) (Homo sapiens, UniProt P00519, M351T); conditions: kinase ABL1(M351T)-phosphorylated; NEW KINOMEscan
[6] = biological target: kinases (KINOMEscan panel) (Homo sapiens, UniProt P35916); conditions: FLT4; NEW KINOMEscan
kinases (KINOMEscan panel) (Homo sapiens, UniProt P35916), sequence (P35916 25-1363): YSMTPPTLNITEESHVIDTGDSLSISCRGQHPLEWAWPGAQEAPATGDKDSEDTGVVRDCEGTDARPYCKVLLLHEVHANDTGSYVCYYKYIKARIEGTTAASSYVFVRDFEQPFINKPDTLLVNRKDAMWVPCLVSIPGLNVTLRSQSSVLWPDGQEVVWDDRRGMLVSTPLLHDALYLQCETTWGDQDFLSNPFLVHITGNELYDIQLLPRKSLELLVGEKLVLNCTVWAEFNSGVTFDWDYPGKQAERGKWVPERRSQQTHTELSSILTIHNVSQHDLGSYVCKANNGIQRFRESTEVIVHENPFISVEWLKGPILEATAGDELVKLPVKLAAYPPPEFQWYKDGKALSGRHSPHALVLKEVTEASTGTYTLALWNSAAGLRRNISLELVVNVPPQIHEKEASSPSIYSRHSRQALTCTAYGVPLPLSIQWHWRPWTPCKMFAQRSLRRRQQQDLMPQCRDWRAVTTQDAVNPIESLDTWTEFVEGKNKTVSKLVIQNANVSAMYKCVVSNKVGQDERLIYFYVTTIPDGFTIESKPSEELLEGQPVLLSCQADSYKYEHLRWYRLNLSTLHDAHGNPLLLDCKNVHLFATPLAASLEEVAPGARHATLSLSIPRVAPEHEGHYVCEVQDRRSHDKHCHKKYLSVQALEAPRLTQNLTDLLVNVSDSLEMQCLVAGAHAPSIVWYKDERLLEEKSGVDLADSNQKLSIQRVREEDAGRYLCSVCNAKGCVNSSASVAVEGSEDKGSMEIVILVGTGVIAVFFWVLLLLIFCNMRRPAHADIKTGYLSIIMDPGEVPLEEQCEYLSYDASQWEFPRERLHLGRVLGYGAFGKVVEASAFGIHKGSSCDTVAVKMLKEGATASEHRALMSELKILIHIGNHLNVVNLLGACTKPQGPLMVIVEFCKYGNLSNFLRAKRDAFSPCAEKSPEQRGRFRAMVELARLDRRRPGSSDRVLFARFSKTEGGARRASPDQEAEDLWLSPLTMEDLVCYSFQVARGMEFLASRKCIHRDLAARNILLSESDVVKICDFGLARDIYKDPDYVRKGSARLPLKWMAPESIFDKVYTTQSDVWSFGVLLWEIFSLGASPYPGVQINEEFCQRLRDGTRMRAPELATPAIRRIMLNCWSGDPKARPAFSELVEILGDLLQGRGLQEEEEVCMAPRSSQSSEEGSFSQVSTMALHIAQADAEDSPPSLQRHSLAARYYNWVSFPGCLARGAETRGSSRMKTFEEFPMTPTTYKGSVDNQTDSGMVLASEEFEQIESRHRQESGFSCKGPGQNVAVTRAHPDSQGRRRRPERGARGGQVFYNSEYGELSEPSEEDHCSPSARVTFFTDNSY

[7] = biological target: T1, kinases (KINOMEscan panel) (Homo sapiens, UniProt O14976); conditions: kinase GAK; NEW KINOMEscan
T1 sequence (O14976 1-1311): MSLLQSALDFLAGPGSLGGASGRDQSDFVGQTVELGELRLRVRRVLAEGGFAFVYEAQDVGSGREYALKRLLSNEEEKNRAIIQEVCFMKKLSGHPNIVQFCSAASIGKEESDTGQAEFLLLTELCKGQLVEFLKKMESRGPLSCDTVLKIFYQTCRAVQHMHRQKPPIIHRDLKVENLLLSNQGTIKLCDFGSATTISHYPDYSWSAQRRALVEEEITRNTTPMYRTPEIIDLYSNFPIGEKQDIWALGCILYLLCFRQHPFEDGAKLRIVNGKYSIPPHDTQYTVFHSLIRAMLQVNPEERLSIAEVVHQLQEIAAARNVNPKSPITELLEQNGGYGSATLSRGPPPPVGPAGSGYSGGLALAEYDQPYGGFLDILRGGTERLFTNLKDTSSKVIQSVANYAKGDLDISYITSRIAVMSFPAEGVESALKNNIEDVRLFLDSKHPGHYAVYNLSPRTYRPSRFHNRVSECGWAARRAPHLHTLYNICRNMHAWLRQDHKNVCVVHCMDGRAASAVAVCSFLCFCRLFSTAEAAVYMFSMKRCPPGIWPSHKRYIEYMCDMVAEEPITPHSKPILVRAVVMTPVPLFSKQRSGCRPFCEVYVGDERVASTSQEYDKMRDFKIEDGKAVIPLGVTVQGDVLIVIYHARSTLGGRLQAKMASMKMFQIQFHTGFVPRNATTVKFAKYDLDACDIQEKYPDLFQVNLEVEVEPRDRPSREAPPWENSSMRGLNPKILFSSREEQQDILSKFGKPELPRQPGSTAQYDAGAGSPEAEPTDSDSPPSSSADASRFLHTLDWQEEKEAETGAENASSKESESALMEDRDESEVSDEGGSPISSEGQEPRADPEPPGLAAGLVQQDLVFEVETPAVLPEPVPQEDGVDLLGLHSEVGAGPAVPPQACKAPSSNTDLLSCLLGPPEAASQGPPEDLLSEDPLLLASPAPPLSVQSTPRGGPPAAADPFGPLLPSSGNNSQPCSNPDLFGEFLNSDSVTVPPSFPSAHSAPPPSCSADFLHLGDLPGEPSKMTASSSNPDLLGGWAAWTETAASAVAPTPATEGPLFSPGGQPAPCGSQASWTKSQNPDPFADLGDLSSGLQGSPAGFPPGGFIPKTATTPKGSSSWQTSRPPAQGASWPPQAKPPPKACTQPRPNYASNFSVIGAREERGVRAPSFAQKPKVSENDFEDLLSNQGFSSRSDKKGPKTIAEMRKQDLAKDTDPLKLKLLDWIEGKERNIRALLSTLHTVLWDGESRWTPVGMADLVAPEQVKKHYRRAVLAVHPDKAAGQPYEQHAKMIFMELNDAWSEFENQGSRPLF

[8] = biological target: kinases (KINOMEscan panel) (Homo sapiens, UniProt P11362); conditions: kinase FGFR1; NEW KINOMEscan
kinases (KINOMEscan panel) (Homo sapiens, UniProt P11362), sequence (P11362 22-822): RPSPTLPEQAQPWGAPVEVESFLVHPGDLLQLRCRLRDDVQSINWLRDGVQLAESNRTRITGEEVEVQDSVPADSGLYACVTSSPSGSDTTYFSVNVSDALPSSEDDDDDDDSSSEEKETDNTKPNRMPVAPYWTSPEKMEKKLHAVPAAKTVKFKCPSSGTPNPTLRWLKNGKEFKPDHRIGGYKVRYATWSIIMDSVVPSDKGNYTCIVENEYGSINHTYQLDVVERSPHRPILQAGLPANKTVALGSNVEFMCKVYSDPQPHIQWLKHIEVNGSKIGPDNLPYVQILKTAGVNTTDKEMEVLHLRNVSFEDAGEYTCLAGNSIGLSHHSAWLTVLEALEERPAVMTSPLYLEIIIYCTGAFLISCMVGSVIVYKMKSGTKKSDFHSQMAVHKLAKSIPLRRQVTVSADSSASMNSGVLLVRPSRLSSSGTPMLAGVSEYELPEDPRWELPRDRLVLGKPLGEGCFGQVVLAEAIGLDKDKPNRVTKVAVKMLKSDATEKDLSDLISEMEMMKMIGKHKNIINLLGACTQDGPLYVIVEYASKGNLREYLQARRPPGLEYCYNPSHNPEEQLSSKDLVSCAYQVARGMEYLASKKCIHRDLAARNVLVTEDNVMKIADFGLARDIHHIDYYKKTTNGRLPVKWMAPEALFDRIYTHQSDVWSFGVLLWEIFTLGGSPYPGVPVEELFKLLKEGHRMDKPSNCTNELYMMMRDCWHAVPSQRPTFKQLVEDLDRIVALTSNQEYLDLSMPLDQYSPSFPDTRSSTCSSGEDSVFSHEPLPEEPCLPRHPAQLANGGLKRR

[9] = biological target: kinases (KINOMEscan panel) (Homo sapiens, UniProt Q7KZI7); conditions: MARK2; NEW KINOMEscan
kinases (KINOMEscan panel) (Homo sapiens, UniProt Q7KZI7), sequence (Q7KZI7 whole entry): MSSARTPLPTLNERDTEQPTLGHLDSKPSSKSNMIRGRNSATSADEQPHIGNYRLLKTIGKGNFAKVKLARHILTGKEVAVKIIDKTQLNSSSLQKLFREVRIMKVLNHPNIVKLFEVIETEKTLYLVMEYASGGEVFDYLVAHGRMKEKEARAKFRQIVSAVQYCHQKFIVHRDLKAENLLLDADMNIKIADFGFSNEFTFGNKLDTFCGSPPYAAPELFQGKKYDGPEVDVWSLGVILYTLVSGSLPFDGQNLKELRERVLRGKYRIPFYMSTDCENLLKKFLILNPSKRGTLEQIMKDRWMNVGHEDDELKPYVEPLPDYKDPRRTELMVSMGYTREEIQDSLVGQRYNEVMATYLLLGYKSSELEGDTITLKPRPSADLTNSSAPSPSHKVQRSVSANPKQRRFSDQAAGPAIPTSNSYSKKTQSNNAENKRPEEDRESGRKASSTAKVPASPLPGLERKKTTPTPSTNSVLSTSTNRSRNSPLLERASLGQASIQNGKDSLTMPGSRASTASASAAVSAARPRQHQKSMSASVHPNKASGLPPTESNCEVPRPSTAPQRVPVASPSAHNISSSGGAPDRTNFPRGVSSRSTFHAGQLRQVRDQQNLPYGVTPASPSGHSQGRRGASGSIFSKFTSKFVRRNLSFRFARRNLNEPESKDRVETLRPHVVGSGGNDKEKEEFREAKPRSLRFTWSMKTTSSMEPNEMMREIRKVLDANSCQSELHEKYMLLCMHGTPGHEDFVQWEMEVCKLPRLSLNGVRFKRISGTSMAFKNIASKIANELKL

[10] = biological target: kinases (KINOMEscan panel) (Homo sapiens, UniProt Q00532); conditions: CDKL1; NEW KINOMEscan
kinases (KINOMEscan panel) (Homo sapiens, UniProt Q00532), sequence (Q00532 whole entry): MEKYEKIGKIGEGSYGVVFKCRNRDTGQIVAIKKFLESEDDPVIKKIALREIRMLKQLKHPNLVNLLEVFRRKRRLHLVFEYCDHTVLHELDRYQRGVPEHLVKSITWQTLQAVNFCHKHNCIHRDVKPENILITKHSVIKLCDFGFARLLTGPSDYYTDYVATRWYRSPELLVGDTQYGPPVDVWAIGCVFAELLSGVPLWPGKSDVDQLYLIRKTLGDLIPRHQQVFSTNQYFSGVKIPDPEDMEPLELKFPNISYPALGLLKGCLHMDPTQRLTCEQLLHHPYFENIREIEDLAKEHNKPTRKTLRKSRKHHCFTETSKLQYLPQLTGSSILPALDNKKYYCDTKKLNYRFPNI

[11] = biological target: T2, kinases (KINOMEscan panel) (Homo sapiens, UniProt P54760); conditions: EPHB4; NEW KINOMEscan
T2 sequence (P54760 16-987): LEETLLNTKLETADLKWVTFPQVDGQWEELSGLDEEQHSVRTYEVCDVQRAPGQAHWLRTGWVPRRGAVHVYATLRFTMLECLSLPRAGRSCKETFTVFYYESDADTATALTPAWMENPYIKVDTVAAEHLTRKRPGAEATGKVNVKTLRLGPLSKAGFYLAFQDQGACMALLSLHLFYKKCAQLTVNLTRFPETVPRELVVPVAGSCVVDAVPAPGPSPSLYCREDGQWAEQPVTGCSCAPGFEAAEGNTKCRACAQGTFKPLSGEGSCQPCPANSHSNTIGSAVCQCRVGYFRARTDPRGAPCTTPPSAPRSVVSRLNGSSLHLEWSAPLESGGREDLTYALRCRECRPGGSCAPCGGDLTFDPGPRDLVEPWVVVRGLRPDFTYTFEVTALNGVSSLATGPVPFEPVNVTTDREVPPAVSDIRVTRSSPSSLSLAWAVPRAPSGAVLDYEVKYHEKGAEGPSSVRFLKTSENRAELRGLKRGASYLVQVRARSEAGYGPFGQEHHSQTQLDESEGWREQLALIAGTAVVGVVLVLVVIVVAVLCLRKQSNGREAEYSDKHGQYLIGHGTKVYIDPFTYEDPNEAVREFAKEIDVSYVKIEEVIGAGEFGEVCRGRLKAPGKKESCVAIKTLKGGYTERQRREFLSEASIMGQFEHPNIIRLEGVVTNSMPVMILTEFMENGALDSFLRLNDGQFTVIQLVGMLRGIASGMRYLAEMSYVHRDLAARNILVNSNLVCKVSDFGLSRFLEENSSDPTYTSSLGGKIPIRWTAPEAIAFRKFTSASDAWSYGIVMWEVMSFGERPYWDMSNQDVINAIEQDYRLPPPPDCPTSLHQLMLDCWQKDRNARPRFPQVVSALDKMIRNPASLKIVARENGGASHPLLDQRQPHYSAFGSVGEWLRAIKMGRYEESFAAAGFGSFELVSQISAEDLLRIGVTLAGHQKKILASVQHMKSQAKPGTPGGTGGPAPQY

kinases (KINOMEscan panel) (Homo sapiens, UniProt P78368), sequence (P78368 whole entry): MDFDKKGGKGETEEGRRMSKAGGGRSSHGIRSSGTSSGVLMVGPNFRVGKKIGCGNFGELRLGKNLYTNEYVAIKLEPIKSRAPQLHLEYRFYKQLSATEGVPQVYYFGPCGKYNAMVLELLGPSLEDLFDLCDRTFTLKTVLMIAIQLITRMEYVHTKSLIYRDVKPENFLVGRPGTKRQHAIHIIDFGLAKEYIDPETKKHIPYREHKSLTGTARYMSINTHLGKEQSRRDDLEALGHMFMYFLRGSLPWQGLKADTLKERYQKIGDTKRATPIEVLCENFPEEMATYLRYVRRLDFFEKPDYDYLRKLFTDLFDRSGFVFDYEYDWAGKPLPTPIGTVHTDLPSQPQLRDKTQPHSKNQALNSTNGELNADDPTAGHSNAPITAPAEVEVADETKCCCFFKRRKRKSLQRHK
kinases (KINOMEscan panel) (Homo sapiens, UniProt P04049), sequence (P04049 whole entry): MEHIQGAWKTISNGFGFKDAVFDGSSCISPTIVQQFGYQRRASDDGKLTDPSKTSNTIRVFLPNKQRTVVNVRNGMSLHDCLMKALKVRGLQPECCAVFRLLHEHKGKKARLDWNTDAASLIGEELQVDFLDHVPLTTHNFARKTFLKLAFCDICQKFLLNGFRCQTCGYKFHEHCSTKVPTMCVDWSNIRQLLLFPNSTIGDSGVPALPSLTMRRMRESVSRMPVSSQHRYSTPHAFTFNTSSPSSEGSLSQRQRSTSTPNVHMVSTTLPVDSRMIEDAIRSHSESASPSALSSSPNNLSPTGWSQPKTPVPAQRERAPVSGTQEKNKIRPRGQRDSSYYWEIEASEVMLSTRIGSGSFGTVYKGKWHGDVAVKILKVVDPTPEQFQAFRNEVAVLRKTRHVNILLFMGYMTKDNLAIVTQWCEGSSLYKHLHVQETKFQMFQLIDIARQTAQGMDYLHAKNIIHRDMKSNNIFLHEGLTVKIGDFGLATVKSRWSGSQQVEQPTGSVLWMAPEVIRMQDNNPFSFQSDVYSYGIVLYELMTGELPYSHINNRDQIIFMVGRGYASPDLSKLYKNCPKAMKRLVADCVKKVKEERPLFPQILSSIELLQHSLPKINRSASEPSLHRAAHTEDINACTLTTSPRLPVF

SMILES	KINOMEscan CSNK1G2 [1]	KINOMEscan RAF1 [2]	KINOMEscan STK39 [3]	KINOMEscan BLK [4]	KINOMEscan ABL1(M351T)-phosphorylated [5]	KINOMEscan FLT4 [6]	KINOMEscan GAK [7]	KINOMEscan FGFR1 [8]	KINOMEscan MARK2 [9]	KINOMEscan CDKL1 [10]	KINOMEscan EPHB4 [11]
Cc1cccc(-c2nc(N(C)c3ccc4ncsc4c3)c3ccccc3n2)n1 [NK-161]	25	0	0	0	0	1	0	10	0	36	0
Cc1cccc(-c2nc(Nc3ccc4nn(C)cc4c3)c3ccccc3n2)n1 [NK167]	12	4	11	0	0	0	0	15	0	44	0
